Patent publication US20140243324A1, “USE OF HEMATOPOIETIC GROWTH FACTOR MIMETICS” (LIGAND PHARMACEUTICALS INCORPORATED, priority 2010, published 2014)

Tests used:
[1] = tested on: CD34+ human bone marrow cells; assay: BFU-E colony formation in human CD34+ bone marrow cells; assay type: cell-based; settings: Compound 101 10 nM
Experimental: CD34+ human bone marrow cells were incubated with recombinant human EPO, Compound 101, or control. Compound 101 stimulated the formation of BFU-E colonies with partial efficacy (31%) when incubated with BM-HCs.

[2] = tested on: PI3K; assay: Phosphorylation of PI3K in UT7 cells; assay type: cell-based, human; settings: 60 minutes, FIG. 5B
Experimental: (§1) UT7 cells were treated with 10 nM Compound 102, 100 nM Compound 102, or control (vehicle). Phosphorylation of the EPO receptor was measured after 15 minutes or 45 minutes of treatment with Compound 101 or control (vehicle) (FIG. 5A). Phosphorylation of PI3K was measured after 60 minutes of treatment with EPO, Compound 101, or control (vehicle) (FIG. 5B). Phosphorylation of GATA1 was measured after 60 minutes treatment with Compound 102, EPO or control (vehicle) (FIG. 5C).

[3] = tested on: UT7 cells; assay: Relative cell viability of UT7 cells transfected with EPO receptor- and GATA1-specific siRNAs; assay type: cell-based, human; settings: 30 nM Compound 101, FIG. 7
Experimental: UT7 cells transfected with EPO receptor- and GATA1-specific siRNAs were treated with 1 U/ml EPO, 30 nM Compound 101, or control (vehicle). The relative cell viability of the cells was measured (FIG. 7).

[4] = tested on: CD34+ human bone marrow cells (BM-HCs); assay: Relative differentiation of human bone marrow cells (CD235a expression); assay type: cell-based; settings: 10 nm Compound 101; FIG. 4
Experimental: CD34+ human bone marrow cells (BM-HCs) were treated with various concentrations of recombinant human EPO, Compound 101, Compound 102, or control. The number of cells expressing the erythrocyte-specific marker, CD235a (glycophorin A), was measured. […] The level of expression of CD235a in cells treated with 10 nm Compound 101 was approximately 37% of the level of expression of CD235a in cells treated with 2.0 U/ml EPO.

[5] = tested on: Erythroid cells; assay: EPO-dependent cell viability assay; assay type: cell-based; settings: for maximum efficacy relative to the efficacy of EPO (cell viability): erythroid cells, FIG. 3; for erythropoietic efficacy compared with EPO at typical serum concentrations: typical EPO in blood approx. 0.01 U/ml
Experimental: Erythroid cells were treated with various concentrations of recombinant human EPO, Compound 101, or Compound 102, and the viability of treated cells was measured. The maximum efficacies of Compounds 101 and 102 was approximately 40% of the efficacy of EPO, corresponding to EPO EC40 of approximately 0.02 U/ml (FIG. 3). The typical EPO concentration in blood is approximately 0.01 U/ml, with a range from about 0.006 U/ml to about 0.032 U/ml.

[6] = tested on: GATA1; assay: Electrophoretic mobility shift assay for GATA1 in UT7 cells; assay type: cell-based, human; settings: 30 minute treatment
Experimental: Binding of GATA1 to DNA was measured in an electrophoretic mobility shift assay for GATA1 in UT7 cells after 30 minute treatments with 1 U/ml EPO, 30 nM Compound 102, or 100 nM Compound 101.

[7] = target: T1, EPO receptor (Homo sapiens, UniProt P19235); assay: Phosphorylation of the EPO receptor in UT7 cells; assay type: cell-based; settings: 10 nM or 100 nM, 15 or 45 minutes, FIG. 5A
T1 construct: endogenous in cells; host or cells: UT7 cells
T1 sequence (P19235 25-508): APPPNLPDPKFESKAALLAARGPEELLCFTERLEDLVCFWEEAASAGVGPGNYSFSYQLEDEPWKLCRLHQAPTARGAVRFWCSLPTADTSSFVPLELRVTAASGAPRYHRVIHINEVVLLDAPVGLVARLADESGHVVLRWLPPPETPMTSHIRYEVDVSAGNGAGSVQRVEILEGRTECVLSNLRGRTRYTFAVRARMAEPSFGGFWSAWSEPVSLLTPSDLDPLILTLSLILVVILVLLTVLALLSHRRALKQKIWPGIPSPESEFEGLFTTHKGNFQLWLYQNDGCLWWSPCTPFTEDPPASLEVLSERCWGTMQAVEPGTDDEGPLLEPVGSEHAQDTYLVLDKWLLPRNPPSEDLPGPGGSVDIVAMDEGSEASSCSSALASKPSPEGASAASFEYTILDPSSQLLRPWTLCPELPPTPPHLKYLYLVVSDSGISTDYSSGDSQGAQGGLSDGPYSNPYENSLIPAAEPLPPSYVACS
T1 sequence (O60674 whole entry partner): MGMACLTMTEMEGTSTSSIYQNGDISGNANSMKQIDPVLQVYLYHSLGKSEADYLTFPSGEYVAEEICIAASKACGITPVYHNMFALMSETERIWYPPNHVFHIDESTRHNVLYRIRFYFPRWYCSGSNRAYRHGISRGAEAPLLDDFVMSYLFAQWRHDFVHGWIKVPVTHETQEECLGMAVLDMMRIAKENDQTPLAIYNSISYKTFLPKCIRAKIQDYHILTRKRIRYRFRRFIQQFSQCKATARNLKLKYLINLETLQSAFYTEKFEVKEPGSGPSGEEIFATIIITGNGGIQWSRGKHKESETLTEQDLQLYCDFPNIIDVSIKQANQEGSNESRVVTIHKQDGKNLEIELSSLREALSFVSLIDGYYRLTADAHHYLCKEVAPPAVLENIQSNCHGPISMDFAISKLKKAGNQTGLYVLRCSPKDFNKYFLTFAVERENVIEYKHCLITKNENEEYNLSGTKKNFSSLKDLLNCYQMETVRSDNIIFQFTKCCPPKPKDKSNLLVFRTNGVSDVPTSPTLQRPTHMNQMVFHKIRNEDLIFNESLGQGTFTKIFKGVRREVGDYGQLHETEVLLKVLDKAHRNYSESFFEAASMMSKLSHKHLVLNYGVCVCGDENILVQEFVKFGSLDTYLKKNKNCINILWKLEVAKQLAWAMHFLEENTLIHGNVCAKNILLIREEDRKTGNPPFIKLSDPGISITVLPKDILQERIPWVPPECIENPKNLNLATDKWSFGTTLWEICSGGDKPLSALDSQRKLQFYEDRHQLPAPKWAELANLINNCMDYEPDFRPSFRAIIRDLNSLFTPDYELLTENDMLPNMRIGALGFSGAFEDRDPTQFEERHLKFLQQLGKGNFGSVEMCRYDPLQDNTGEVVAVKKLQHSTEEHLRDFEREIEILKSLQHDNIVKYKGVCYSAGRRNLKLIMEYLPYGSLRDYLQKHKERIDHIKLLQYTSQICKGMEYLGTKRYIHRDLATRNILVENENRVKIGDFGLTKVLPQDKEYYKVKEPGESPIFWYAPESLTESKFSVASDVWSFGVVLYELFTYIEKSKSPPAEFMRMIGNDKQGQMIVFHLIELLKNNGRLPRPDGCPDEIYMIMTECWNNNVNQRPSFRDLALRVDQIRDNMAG
Experimental: as §1

[8] = tested on: GATA1; assay: Phosphorylation of GATA1 in UT7 cells; assay type: cell-based, human; settings: 60 minutes, FIG. 5C
Experimental: as §1

[9] = tested on: BCL2L1; assay: BCL2L1 expression in UT7EPO cells; assay type: cell-based, human
Experimental: (§2) Using human cell lines, the action of Compound 103 was determined to be dependent on the EPO receptor and involves the selective activation of the PI3K/AKT-GATA1 signaling pathway.

[10] = target: T2, EPOR (Homo sapiens, UniProt P19235); assay: Phosphorylation of EPOR in UT7EPO cells; assay type: cell-based
T2 construct: In the human EPO-dependent cell line UT7EPO; endogenous in cells; host or cells: UT7EPO cells
T2 sequence (P19235 25-508): as the sequence (P19235 25-508) above
T2 sequence (O60674 whole entry partner): as the sequence (O60674 whole entry partner) above
Experimental: as §2

[11] = tested on: CD34+ human bone marrow hematopoietic cells (BM-HCs); assay: Percentage of CD235a (glycophorin A) positive cells in CD34+ BM-HCs; assay type: cell-based
[12] = tested on: ERK/MAPK; assay: Phosphorylation of ERK/MAPK in UT7EPO cells; assay type: cell-based, human
Experimental: as §2

[13] = tested on: STAT5; assay: STAT5 DNA binding in UT7EPO cells; assay type: cell-based, human
Experimental: as §2

[14] = tested on: Mo7e cells; assay: Apoptosis in Mo7e cells that lack EPO receptor; assay type: cell-based; settings: GM-CSF- and TPO-responsive human leukemia Mo7e cells that lack EPO receptor
[15] = tested on: BCL2L1; assay: BCL2L1 expression in Mo7e cells that lack EPO receptor; assay type: cell-based; settings: GM-CSF- and TPO-responsive human leukemia Mo7e cells that lack EPO receptor
[16] = tested on: GATA1; assay: Phosphorylation of GATA1 in UT7EPO cells; assay type: cell-based, human
Experimental: as §2

[17] = tested on: GATA1; assay: Binding of GATA1 to DNA in UT7EPO cells; assay type: cell-based, human
Experimental: as §2

[18] = tested on: BM-HCs; assay: BFU-E colony formation in BM-HCs, 14 days; assay type: cell-based, human; settings: incubated with BM-HCs for 14 days
Experimental: (§3) In addition, Compound 103 stimulated the formation of BFU-E colonies with partial efficacy (30%) when incubated with BM-HCs for 14 days. The effect of Compound 103 on BM-HCs was specific for the erythroid lineage.

[19] = tested on: STAT5; assay: Phosphorylation of STAT5 in UT7EPO cells; assay type: cell-based, human
Experimental: as §2

[20] = tested on: EPO responsive genes (hemoglobin α, EPO receptor, BCL2L1); assay: Expression of EPO responsive genes in CD34 positive BM-HCs; assay type: cell-based, human
[21] = tested on: PI3K; assay: Phosphorylation of PI3K in UT7EPO cells; assay type: cell-based, human
Experimental: as §2

[22] = tested on: BM-HCs; assay: Lineage specificity in BM-HCs (CD41, CD15 markers); assay type: cell-based, human
Experimental: as §3

[23] = tested on: UT7EPO cells; assay: Apoptosis induced by EPO withdrawal / cell survival in UT7EPO cells; assay type: cell-based, human
Experimental: as §2

**Q.** With `CN(C)c1ccc(C(=O)N/N=C/c2ccc(Oc3ccc(/C=N/NC(=O)c4ccc(N(C)C)cc4)cc3)cc2)cc1` [Compound 101, (N′,N′″E,N′,N′″E)-N′,N′″-((Oxybis(4,1-phenylene))bis(methanylylidene))bis(4-(dimethylamino)benzohydrazide)] as the compound, how does the “% BFU-E relative to 3 U/ml EPO” value [1] read?
**A.** 31%

**Q.** What about the BFU-Es/Dish [1] of the same compound?
**A.** 11

**Q.** And the “phosphorylation of PI3K” value [2]?
**A.** stimulated phosphorylation

**Q.** And the “effect of EPO receptor- and GATA1-specific siRNAs on compound activity (relative cell viability)” value [3]?
**A.** blocks activity

**Q.** What about the “level of expression of CD235a compared with cells treated with 0.01 U/ml EPO” value [4] of the same compound?
**A.** above the level of expression observed in cells treated with 0.01 U/ml EPO

**Q.** And the “level of expression of CD235a relative to cells treated with 2.0 U/ml EPO” value [4]?
**A.** approximately 37%

**Q.** What about the “maximum efficacy relative to the efficacy of EPO (cell viability)” value [5] of the same compound?
**A.** approximately 40%

**Q.** What about the “erythropoietic efficacy compared with EPO at typical serum concentrations” value [5] of the same compound?
**A.** greater than would be predicted for EPO at typical serum concentrations

**Q.** What about the “binding of GATA1 to DNA (EMSA)” value ([6]; 100 nM Compound 101) of the same compound?
**A.** induce binding of GATA1 to DNA

**Q.** Which results are given for `COc1cccc(C(=O)N/N=C/c2ccc(Oc3ccc(/C=N/NC(=O)c4cccc(OC)c4)cc3)cc2)c1` [Compound 102, (N′,N′″E,N′,N′″E)-N′,N′″-((oxybis(4,1-phenylene))bis(methanylylidene))bis(3-methoxybenzohydrazide)]?
**A.** phosphorylation of the EPO receptor [7]: stimulated phosphorylation; phosphorylation of GATA1 [8]: stimulated phosphorylation; maximum efficacy relative to the efficacy of EPO (cell viability) [5]: approximately 40%; erythropoietic efficacy compared with EPO at typical serum concentrations [5]: greater than would be predicted for EPO at typical serum concentrations; binding of GATA1 to DNA (EMSA) ([6]; 30 nM Compound 102): induce binding of GATA1 to DNA

**Q.** Which “stimulation of the expression of BCL2L1, efficacy” value [9] does the source give for `CN(C)c1ccc(C(=O)N/N=C/c2cccc(/C=N/NC(=O)c3ccc(N(C)C)cc3)c2)cc1` [Compound 103, (N′,N′″E,N′,N′″E)-N′,N′″-(1,3-phenylenebis(methanylylidene))bis(4-(dimethylamino)benzohydrazide)] here?
**A.** efficacy comparable to EPO

**Q.** And the “phosphorylation of EPOR” value [10]?
**A.** stimulated the phosphorylation

**Q.** What about the “erythropoietic effect in combination with EPO” value ([11]; BM-HCs) of the same compound?
**A.** additive to the effect of EPO

**Q.** What about the EC50 ([11]; Homo sapiens, CD34+ BM-HCs, read-out: EC50, increase of percentage of cells positive for CD235a) of the same compound?
**A.** 2 nM

**Q.** And the Emax ([11]; Homo sapiens, CD34+ BM-HCs, read-out: efficacy relative to the maximal effect of EPO (3 U/ml), CD235a positive cells)?
**A.** 42%

**Q.** What about the “efficacy compared with the normal serum EPO concentration, CD235a positive cells” value ([11]; normal serum EPO (−0.01 U/ml)) of the same compound?
**A.** greater than the efficacy of the normal serum EPO concentration

**Q.** And the “phosphorylation of ERK/MAPK” value [12]?
**A.** did not stimulate phosphorylation

**Q.** And the “induction of STAT5 DNA binding” value [13]?
**A.** did not

**Q.** What about the block of apoptosis [14] of the same compound?
**A.** did not block apoptosis

**Q.** What about the “stimulation of BCL2L1 expression” value [15] of the same compound?
**A.** did not

**Q.** What about the “phosphorylation of GATA1” value [16] of the same compound?
**A.** stimulated the phosphorylation

**Q.** What about the “binding of GATA1 to DNA” value [17] of the same compound?
**A.** induced the binding of GATA1 to DNA

**Q.** What about the “formation of BFU-E colonies, partial efficacy” value [18] of the same compound?
**A.** 30%

**Q.** And the “phosphorylation of STAT5” value [19]?
**A.** did not stimulate phosphorylation

**Q.** What about the “expression of EPO responsive genes including hemoglobin α, EPO receptor and BCL2L1” value [20] of the same compound?
**A.** stimulated the expression

**Q.** What about the “phosphorylation of PI3K” value [21] of the same compound?
**A.** stimulated the phosphorylation

**Q.** What about the “percentage of BM-HCs positive for the granulocyte marker CD15” value [22] of the same compound?
**A.** did not increase

**Q.** And the “percentage of BM-HCs positive for the megakaryocyte marker CD41” value [22]?
**A.** did not increase

**Q.** And the EC50 ([23]; Homo sapiens, UT-7/Epo, UT7EPO cells, read-out: EC50, block of apoptosis induced by EPO withdrawal)?
**A.** 10 nM

**Q.** And the “activity after transfection with EPO receptor- and GATA1-specific siRNAs” value ([23]; UT7EPO cells)?
**A.** blocked the activity

**Q.** And the “effect on cell survival in presence of the PI3K inhibitor LY294002” value ([23]; UT7EPO cells incubated with LY294002)?
**A.** blocked the effect
